Test results taken from PMC5144158 (Chemical research in toxicology, 2016).
pEC50: −log10 of the molar value. Entries after “also recorded” stand apart in the source; their conditions may differ. Where two headings read alike, the source gives them in different places.

Assays:
[1] = tested on: PPAR target genes (ACOX1, ANGPTL4, CPT2, PDK4); experiment: Primary human hepatocyte mRNA expression; type: cell-based; conditions: primary human hepatocytes HH1–HH3, 24 h; for expression of PPAR target genes (overall): MEHP/MiNP 0.1–30 μM
hCAR variants and hPXR = conditions: transactivation assays, ref [47]; cited from earlier work
hPXR [2] = target: hPXR (Homo sapiens, UniProt O75469); experiment: Mammalian two-hybrid assay, PXR LBD with SRC1, COS-1 cells; conditions: COS-1, 24 h, Figure 5
3T3L1 cells = conditions: cited from earlier work
hCAR3 = target: T1, hCAR3 (Homo sapiens, UniProt Q14994, DEL233-236); experiment: Transactivation luciferase reporter assay in COS-1 cells, CMV2-CAR3; type: cell-based; conditions: COS-1, 2B6-XREM-PBREM reporter, 24 h, Figure 2
T1 sequence (Q14994 with tags, fused parts or gaps isoform Q14994-8 DEL233-236): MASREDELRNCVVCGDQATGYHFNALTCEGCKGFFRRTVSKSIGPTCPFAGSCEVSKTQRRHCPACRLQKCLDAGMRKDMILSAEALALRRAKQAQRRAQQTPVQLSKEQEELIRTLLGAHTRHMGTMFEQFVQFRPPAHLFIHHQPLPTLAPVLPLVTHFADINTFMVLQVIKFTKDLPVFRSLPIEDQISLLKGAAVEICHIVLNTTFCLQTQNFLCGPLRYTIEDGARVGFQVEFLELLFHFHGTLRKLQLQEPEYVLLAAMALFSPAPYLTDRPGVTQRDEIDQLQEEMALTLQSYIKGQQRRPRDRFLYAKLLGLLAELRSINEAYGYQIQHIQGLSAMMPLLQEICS
T1 sequence (P19793 1-462 partner): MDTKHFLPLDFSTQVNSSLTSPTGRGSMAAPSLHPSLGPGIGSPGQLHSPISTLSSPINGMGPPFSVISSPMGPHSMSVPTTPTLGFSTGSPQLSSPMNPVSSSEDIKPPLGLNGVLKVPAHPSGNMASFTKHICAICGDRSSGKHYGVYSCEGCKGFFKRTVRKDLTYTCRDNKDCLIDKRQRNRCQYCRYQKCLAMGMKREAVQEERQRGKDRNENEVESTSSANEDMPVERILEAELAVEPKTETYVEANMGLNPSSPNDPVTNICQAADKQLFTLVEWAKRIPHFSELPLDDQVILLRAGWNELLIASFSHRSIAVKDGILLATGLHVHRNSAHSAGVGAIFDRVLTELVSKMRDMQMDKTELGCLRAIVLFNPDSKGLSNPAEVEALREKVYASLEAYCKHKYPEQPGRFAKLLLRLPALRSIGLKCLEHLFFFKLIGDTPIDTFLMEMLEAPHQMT

hCAR2 [3] = target: T2, hCAR2 (Homo sapiens, UniProt Q14994); experiment: Transactivation luciferase reporter assay in COS-1 cells, CMV2-CAR2; type: cell-based; conditions: for activation of hCAR2 (screen): COS-1, 2B6-XREM-PBREM reporter, Figure 2
T2 sequence (Q14994 1-352): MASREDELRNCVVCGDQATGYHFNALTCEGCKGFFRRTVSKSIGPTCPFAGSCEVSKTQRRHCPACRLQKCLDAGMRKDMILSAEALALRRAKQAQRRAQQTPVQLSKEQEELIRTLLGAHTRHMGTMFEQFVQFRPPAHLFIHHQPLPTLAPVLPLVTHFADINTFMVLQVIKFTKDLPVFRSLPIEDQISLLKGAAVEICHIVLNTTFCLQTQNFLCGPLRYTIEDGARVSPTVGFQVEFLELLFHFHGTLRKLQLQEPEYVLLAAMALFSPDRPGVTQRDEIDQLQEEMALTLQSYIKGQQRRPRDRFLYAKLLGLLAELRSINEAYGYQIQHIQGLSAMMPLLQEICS
T2 sequence (P19793 1-462 partner): T1 sequence (P19793 1-462 partner)

CYP2B6 = experiment: Primary human hepatocyte mRNA expression; conditions: donor HH3, 30 μM, 24 h
hCAR2 [4] = target: hCAR2 (Homo sapiens, UniProt Q14994); experiment: Mammalian two-hybrid assay, CAR LBD with SRC1, COS-1 cells; type: cell-based; conditions: COS-1, 24 h, Figure 5
hPPARα = target: T3, hPPARα (Homo sapiens, UniProt Q07869); type: cell-based; conditions: COS-1, 24 h, Figure 4A
T3 sequence (Q07869 1-468): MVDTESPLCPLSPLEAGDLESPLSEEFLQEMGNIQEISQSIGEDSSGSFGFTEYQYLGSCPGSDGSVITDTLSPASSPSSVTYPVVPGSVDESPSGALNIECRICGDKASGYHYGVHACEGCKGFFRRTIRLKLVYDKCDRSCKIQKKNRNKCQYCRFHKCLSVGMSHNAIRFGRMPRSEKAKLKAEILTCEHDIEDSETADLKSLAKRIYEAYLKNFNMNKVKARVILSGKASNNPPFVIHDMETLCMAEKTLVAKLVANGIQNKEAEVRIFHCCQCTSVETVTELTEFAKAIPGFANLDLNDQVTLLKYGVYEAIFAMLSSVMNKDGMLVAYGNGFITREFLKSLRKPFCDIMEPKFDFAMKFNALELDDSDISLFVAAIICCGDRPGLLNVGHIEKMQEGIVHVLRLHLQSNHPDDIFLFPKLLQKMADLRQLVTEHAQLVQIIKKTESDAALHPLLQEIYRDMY

hPXR [5] = target: T4, hPXR (Homo sapiens, UniProt O75469); experiment: Transactivation luciferase reporter assay in COS-1 cells, CMV2-PXR; conditions: for activation of hPXR (screen): COS-1, 2B6-XREM-PBREM reporter, Figure 2
T4 sequence (O75469 1-434): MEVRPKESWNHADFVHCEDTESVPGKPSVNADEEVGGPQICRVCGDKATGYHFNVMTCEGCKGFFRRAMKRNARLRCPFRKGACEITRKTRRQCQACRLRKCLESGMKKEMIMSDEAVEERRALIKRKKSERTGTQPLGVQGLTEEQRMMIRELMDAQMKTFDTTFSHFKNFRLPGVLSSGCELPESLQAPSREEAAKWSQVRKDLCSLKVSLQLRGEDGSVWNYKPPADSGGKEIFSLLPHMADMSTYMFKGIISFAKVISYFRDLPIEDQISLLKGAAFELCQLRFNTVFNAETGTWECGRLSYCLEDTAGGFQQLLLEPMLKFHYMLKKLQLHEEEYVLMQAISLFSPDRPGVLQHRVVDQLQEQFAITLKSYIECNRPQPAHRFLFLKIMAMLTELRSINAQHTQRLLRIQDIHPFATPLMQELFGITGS
T4 sequence (P19793 1-462 partner): T1 sequence (P19793 1-462 partner)

hCAR1 = target: T5, hCAR1 (Homo sapiens, UniProt Q14994); experiment: Transactivation luciferase reporter assay in COS-1 cells, CMV2-CAR1; type: cell-based; conditions: COS-1, 2B6-XREM-PBREM reporter, ANDRO 10 μM, 24 h, Figure 2
T5 sequence (Q14994 1-348 isoform Q14994-2): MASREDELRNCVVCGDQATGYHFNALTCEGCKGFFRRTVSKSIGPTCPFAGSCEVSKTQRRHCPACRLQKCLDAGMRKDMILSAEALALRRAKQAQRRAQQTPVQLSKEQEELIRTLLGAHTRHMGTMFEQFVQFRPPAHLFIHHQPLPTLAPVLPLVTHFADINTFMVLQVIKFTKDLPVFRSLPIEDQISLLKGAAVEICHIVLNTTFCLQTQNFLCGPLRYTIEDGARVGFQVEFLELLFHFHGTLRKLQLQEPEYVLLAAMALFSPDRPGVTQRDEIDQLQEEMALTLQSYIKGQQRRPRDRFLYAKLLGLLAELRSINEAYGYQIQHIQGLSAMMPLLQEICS

[6] = tested on: hPPARα, hPPARβ/∂, and hPPARγ; experiment: PPRE reporter transactivation assays, statements on the hPPARs collectively; type: cell-based, human
female rodents = conditions: ref [8]; cited from earlier work
Wild-type mice = conditions: PPARα knockout mice not protected, ref [59]; cited from earlier work
[7] = tested on: rodent PPAR and CAR target genes; conditions: in vivo rodent studies, ref [29],[30]; cited from earlier work
male rodents = conditions: varying treatment modalities, ref [5]–[7]; cited from earlier work

Question: What does the source list for `Cc1c(C)c2c(c(C)c1O)CCC(C)(COc1ccc(CC3SC(=O)NC3=O)cc1)O2` (stereo not shown) [TG, troglitazone]?
Answer: ANGPTL4 mRNA expression ([1]; 50 μM WY14643, 30 μM TG): inducing only ANG and CPT in HH3; CPT2 mRNA expression ([1]; 50 μM WY14643, 30 μM TG): inducing only ANG and CPT in HH3; expression of PPAR target genes (overall) [1]: weak inducer of PPAR target genes; activation of hCAR variants and hPXR (hCAR variants and hPXR): activates hCAR variants and hPXR

Question: With `CCCCC(CC)COC(=O)c1ccccc1C(=O)O` (stereo not shown) [MEHP, mono-(2-ethylhexyl)phthalate] as the compound, how does the “hPXR interaction with SRC1 / activation (mammalian two-hybrid)” value (hPXR [2]) read?
Answer: The value was “interacted with SRC1 in a dose-dependent manner”.

Question: And the “expression of PPARγ target genes involved in adipocyte differentiation” value (3T3L1 cells; 3T3L1 cells, ref [42])?
Answer: Its value is “induced expression of PPARγ target genes”.

Question: What about the “cellular lipid and triglyceride content” value (3T3L1 cells; 3T3L1 preadipocytes, ref [41],[42]) of the same compound?
Answer: The value was “increased cellular lipid and triglyceride content”.

Question: And the “activation of hCAR3 (screen)” value (hCAR3)?
Answer: The value was “slight activation of hCAR1 and hCAR3 at the highest doses”.

Question: What about the “activation of hCAR2 (screen)” value (hCAR2 [3]; 24 h) of the same compound?
Answer: The value was “significant activation of hCAR2”.

Question: And the “rank order potency across receptors” value (hCAR2 [3]; transactivation dose–response, Figure 4B)?
Answer: The value was “hCAR2 > hPXR > hPPARγ ≥ PPARβ/∂”.

Question: And the “CYP2B6 mRNA expression” value (CYP2B6)?
Answer: Its value is “increased expression of CYP2B6”.

Question: What about the “hCAR interaction with SRC1 / activation (mammalian two-hybrid)” value (hCAR2 [4]) of the same compound?
Answer: The value was “interacted with SRC1 in a dose-dependent manner”.

Question: And the “expression of PPAR target genes (overall)” value [1]?
Answer: The value was “Neither MEHP nor MiNP induced expression of any PPAR target genes; also recorded: no activation of PPAR target genes”.

Question: What about the “activation of hPPARα (dose–response)” value (hPPARα) of the same compound?
Answer: Its value is “very little activation of hPPARα”.

Question: And the “activation of hPXR (screen)” value (hPXR [5]; 24 h)?
Answer: The value was “moderate activation of hPXR”.

Question: What about the pEC50 (hPXR [5]; read-out: EC50 (hPXR), COS-1, 3A4-XREM reporter, 24 h, Figure 6/Table 4) of the same compound?
Answer: Its pEC50 is 4.57.

Question: And the “activation of hCAR1 (screen)” value (hCAR1)?
Answer: The value was “slight activation of hCAR1 and hCAR3 at the highest doses; also recorded: little or no activation of hCAR1”.

Question: Which “activation of hCAR3 (screen)” value (hCAR3) does the source give for `CCCCC(CC)COC(=O)c1ccccc1C(=O)OCC(CC)CCCC` (stereo not shown) [DEHP, di(2-ethylhexyl) phthalate] here?
Answer: The value was “only minimal activity”.

Question: What about the pEC50 (hCAR2 [3]) of the same compound?
Answer: Its pEC50 is 7.00.

Question: What about the “activation of hCAR2 (screen)” value (hCAR2 [3]; 24 h) of the same compound?
Answer: The value was “activated hCAR2 and hPXR”.

Question: And the “max fold activation (hCAR2)” value (hCAR2 [3]; COS-1, CYP2B6-PBREM-XREM reporter, 24 h, Figure 6/Table 4)?
Answer: The value was 7.1 fold.

Question: And the “activation of the PPRE reporter by hPPARs (screen)” value ([6]; COS-1, 24 h, Figure 3, effects only at highest test dose (100 μM))?
Answer: Its value is “neither DEHP nor DiNP activated the hPPARs”.

Question: What about the “activation of the hPPARs (dose–response, higher doses)” value ([6]; hPPARα and hPPARγ, higher doses than screening, data not shown) of the same compound?
Answer: The value was “neither of the diphthalates activated the hPPARs”.

Question: And the “estradiol levels and estrus cycle” value (female rodents)?
Answer: Its value is “Decreased estradiol levels and estrus cycle disruptions”.

Question: What about the “phenotype on control diet or high fat diet” value (Wild-type mice) of the same compound?
Answer: Its value is “exhibited a lean phenotype”.

Question: What about the pEC50 (hPXR [5]) of the same compound?
Answer: Its pEC50 is 5.46.

Question: And the “activation of hPXR (screen)” value (hPXR [5]; 24 h)?
Answer: The value was “activated hCAR2 and hPXR”.

Question: What about the “max fold activation (hPXR)” value (hPXR [5]; COS-1, 3A4-XREM reporter, 24 h, Figure 6/Table 4) of the same compound?
Answer: Its value is 13.7 fold.

Question: What about the “activation of rodent PPAR and CAR target genes” value [7] of the same compound?
Answer: The value was “activation of rodent PPAR and CAR target genes”.

Question: What about the “activation of hCAR1 (screen)” value (hCAR1) of the same compound?
Answer: Its value is “only minimal activity; also recorded: little or no activation of hCAR1”.

Question: And the “testosterone levels, reproductive organ weights, sperm counts, sperm motility” value (male rodents)?
Answer: The value was “decrease testosterone levels, reproductive organ weights, sperm counts, and sperm motility”.
